Measured values published in US9217014B2, “Antifungal agents and uses thereof” (Cidara Therapeutics, Inc., priority 2011, dated 2015).

Tests used:
Assay type in all cases: cell-based
Aspergillus spp. = experiment: MEC and MIC values versus Aspergillus spp.; conditions: 48 h; presence and absence of 50% human serum
Description: MEC and MIC values (μg/mL) of anidulafungin, caspofungin, amphotericin B, compound 1, and compound 16 against various Aspergillus species in the presence and absence of 50% human serum were obtained as follows.
Test organisms were obtained from the American Type Culture Collection (Manassas, Va.). The isolates were maintained at −80° C., then thawed and sub-cultured prior to testing. […]
Standardized inoculum of Aspergillus was prepared per CLSI methods. […] After a short time to allow the heavy particles to settle out, a small quantity of the supernatant was dispensed into RPMI and the suspension adjusted to equal 0.5 McFarland turbidity. […]
Plates were covered with a lid, placed in plastic bags, and incubated at 35° C. The Aspergillus plates were incubated for 48 h before reading. […]
Both an MIC and Minimal Effective Concentration (MEC) value was recorded. […]

Candida spp. = experiment: MIC values versus Candida spp. at 24 and 48 hours; conditions: presence and absence of 50% human serum
Description: (§1) MIC values (μg/mL) of anidulafungin, caspofungin, amphotericin B, compound 1, and compound 16 against various Candida species in the presence and absence of 50% human serum were obtained as follows.
(§2) Test organisms were obtained from the American Type Culture Collection (Manassas, Va.). The isolates were maintained at −80° C., then thawed and sub-cultured prior to testing.
(§3) The MIC assay method followed the procedure described by the Clinical and Laboratory Standards Institute and employed automated liquid handlers to conduct serial dilutions and liquid transfers. The wells in columns 1-12 in standard 96-well microdilution plates were filled with 150 μL of DMSO. These would become the ‘mother plates’ from which ‘daughter’ or test plates would be prepared. The drugs (150 μL at 80× the desired top concentration in the test plates) were dispensed into the appropriate well in column 1 of the mother plates and mixed. Serial 1:1 dilutions were made through Column 11 in the “mother plate”. The wells of column 12 contained no drug and were the organism growth control wells. […]
(§4) Plates were covered with a lid, placed in plastic bags, and incubated at 35° C. The Candida isolates were read after 24 h incubation and again at 48 h. […]
(§5) For Candida species, the Minimal Inhibitory Concentration (MIC) was read per CLSI guidelines.

Candida glabrata = experiment: MIC versus a strain of Candida glabrata in 50% human serum
Description: as §1, §2, §3, §4, §5

SMILES	activity against Aspergillus strains relative to anidulafungin (MEC and MIC) (Aspergillus spp.)	activity against Candida strains relative to anidulafungin (MIC) (Candida spp.)	activity against a strain of Candida glabrata in comparison to anidulafungin (Candida glabrata)
CCCCCOc1ccc(-c2ccc(-c3ccc(C(=O)N[C@H]4C[C@@H](O)C(OCC[N+](C)(C)C)NC(=O)C5[C@@H](O)[C@@H](C)CN5C(=O)C([C@@H](C)O)NC(=O)C([C@H](O)[C@@H](O)c5ccc(O)cc5)NC(=O)C5C[C@@H](O)CN5C(=O)C([C@@H](C)O)NC4=O)cc3)cc2)cc1 (stereo partly drawn) [compound 1]	retain their activity	retain their activity	superior activity
CCCCCOc1ccc(-c2ccc(-c3ccc(C(=O)N[C@H]4C[C@@H](O)C(NCC[N+](C)(C)C)NC(=O)C5[C@@H](O)[C@@H](C)CN5C(=O)C([C@@H](C)O)NC(=O)C([C@H](O)[C@@H](O)c5ccc(O)cc5)NC(=O)C5C[C@@H](O)CC5C(=O)C([C@@H](C)O)NC4=O)cc3)cc2)cc1 (stereo partly drawn) [compound 16]	retain their activity	retain their activity	superior activity
